Assay results published in article PMC4838552 (ChemMedChem, 2016).

Key:
RPA70N = RPA70N (Homo sapiens, UniProt P27694); assay: FPA competition assay; format: binding; settings: for LE (ligand efficiency): LE = 1.4*pKd/HAC, using the FPA data
[1] = biological target: ssDNA binding to RPA70AB in the RPA70NAB construct (Homo sapiens, UniProt P27694); assay: Fluorescence-based DNA binding assay; settings: Kd for ssDNA binding to RPA70AB in RPA70NAB, absence vs presence of compound
[2] = Caco-2 permeability study; format: in vitro ADME; settings: human
Protein binding study = format: in vitro ADME

Structure (SMILES) | LE (ligand efficiency) (RPA70N) | effect on ssDNA binding to RPA [1] | Papp A→B [2] [×10⁻⁶ cm/s] | fraction unbound (Protein binding study) | potency relative to 11 (fold less potent) (RPA70N; compared with compound 11)
Cc1ccc(C(=O)Nc2ccccc2C(=O)O)cc1S(=O)(=O)Nc1ccc(Br)cc1 [Compound 11, 2-(3-(N-(4-bromophenyl)sulfamoyl)-4-methylbenzamido)benzoic acid] | 0.21 | – | – | – | –
Cc1ccc(C(=O)Nc2cc(Br)ccc2C(=O)O)cc1S(=O)(=O)Nc1ccc(Cl)c(Cl)c1 [Compound 20c, 4-Bromo-2-(3-(N-(3,4-dichlorophenyl)sulfamoyl)-4-methylbenzamido)benzoic acid] | 0.27 | does not affect ssDNA binding to RPA | 29.2 | 0.002 | –
Cc1ccc(C(=O)Nc2ccccc2C(=O)O)cc1S(=O)(=O)Nc1cccc(Cl)c1 [Compound 18, 2-(3-(N-(3-chlorophenyl)sulfamoyl)-4-methylbenzamido)benzoic acid] | 0.21 | – | – | – | equipotent
